Data on two compounds can be found in US20100222404A1, “INDAZOLE DERIVATIVE DIHYDROCHLORIDE” (ASAHI KASEI PHARMA CORPORATION, priority 2008, published 2010).

Series [1] can be described thus: Test for measuring solubility (Test Example 1, saturated solution by HPLC). It counts as physicochemical. The conditions noted are these: for solubility thermodynamic at 1 h: thermodynamic from solid, room temperature, read-out: Saturated solution concentration. As for the experimental part: About 50 mg each of the “monohydrochloride salt” and the “dihydrochloride salt” were precisely weighed, and were each suspended in a solvent so as to obtain a concentration of 500 mg/ml, respectively. Each suspension was sonicated for 10 minutes, and then was shaken at room temperature for one hour. Subsequently, each of the supernatant of the suspension was subjected to centrifugal filtration (10° C., 3000 RPM, 20 minutes) using a centrifugal filter (Ultrafree-MC PTFE 0.2 μm, manufactured by Millipore, Inc.), to thereby prepare a saturated solution. Each of the saturated solutions was analyzed by HPLC, and the concentration of the saturated solution was calculated from the peak area.

Series [2] can be described thus: Blood concentration measurement test (AUC after oral enteric capsule). The class given is in vivo, male beagle dogs. The conditions noted are these: for AUC(0-inf): dog, compound 1 free form measured in blood plasma, read-out: AUCinf mean; for AUC(0-inf) / AUCinf CV (coefficient of variation): male beagle dogs, fasting, oral enteric capsule, 1 mg/kg as free form. As to the method:
The “monohydrochloride salt” and the “dihydrochloride salt” were respectively filled in an enteric capsule (Eudragit L coat, No. 5) to an amount of administration of 1 mg/kg in terms of the “compound 1” in a free form. The capsules were forcibly orally administered to male beagle dogs (Oriental Yeast Co., Ltd.) under fasting. 0.5, 1, 2, 3, 4, 6, 8, 10 and 24 hours after the administration, about 1 mL of blood was collected from the cephalic vein under non-anesthesia conditions, with a 2.5-mL syringe through which a heparin sodium solution had been passed through in advance (equipped with a 23 G injection needle). The collected blood was cooled in ice, and the blood plasma was separated by a centrifugal operation. After a lapse of 6 hours from the administration, the dogs were fed with a usual amount of food. The concentration of the “compound 1” in a free form in the blood plasma was measured by the LC/MS/MS method in each case, and the AUC was calculated using the Non-Compartment model of WinNonlin software v5.0.1. (in the table, AUCinf means the “AUC obtained when the blood plasma concentration was extrapolated from zero to the infinity”, mean is the “average”, SD is the “standard deviation”, and CV is the “coefficient of variation”.)

Series [3] can be described thus: Test for measuring solubility (Test Example 2, saturated solution by HPLC). The conditions noted are these: room temperature; for solubility thermodynamic at 1 h: thermodynamic from solid, read-out: Saturated solution concentration. It counts as physicochemical. As to the method: The “dihydrochloride salt” was precisely weighed in the amounts indicated in Table 2, and 20 ml each of the solvent was added to the weighed samples. The samples were shaken for one hour at room temperature. After it was visually checked that the samples were not completely dissolved, the samples were centrifuged (10° C., 3000 RPM, 20 minutes), and the supernatant was filtered through a Membrane filter, to thereby produce saturated solutions. Each of the saturated solutions was analyzed by HPLC, and the concentration of the saturated solution was calculated from the peak area.

Setting [4] is: aqueous buffer, pH 6.8 Buffer solution (phosphate buffer solution).
Where [5] appears, read: saline or isotonic, Physiological saline, shaken one hour.
Setting [6] is: simulated gastric fluid, pH 1.2 Buffer solution (1st fluid for dissolution test).

In the case of `Cc1n[nH]c2cc(OCCNC[C@H](O)c3cccc(NS(C)(=O)=O)c3)ccc12.Cl` [monohydrochloride salt, (R)—N-[3-[2-[2-(3-methylindazol-6-yloxy)ethylamino]-1-hydroxyethyl]phenyl]methanesulfonamide hydrochloride, reference compound], the solubility thermodynamic at 1 h in series [1] (setting [4]) was 23.7 mg/mL; in series [1] (setting [5]), 32.2 mg/mL; in series [1] (setting [6]) it was 73.5 mg/mL; in series [1] (Water, shaken one hour), 36.7 mg/mL. In series [2], the AUC(0-inf) was found to be 1.11 µg·h/mL. The “AUCinf CV (coefficient of variation)” value in series [2] was determined as 70.0%.

Regarding `Cc1n[nH]c2cc(OCCNC[C@H](O)c3cccc(NS(C)(=O)=O)c3)ccc12.Cl.Cl` [dihydrochloride salt, (R)—N-[3-[2-[2-(3-methylindazol-6-yloxy)ethylamino]-1-hydroxyethyl]phenyl]methanesulfonamide dihydrochloride], the Saturated solution concentration in series [3] (Ethanol, 0.1 g in 20 ml) amounted to 0.516 mg/mL. For the same compound, the solubility thermodynamic at 1 h in series [3] (aqueous buffer, pH 4.0 Buffer solution (0.05 mol/L acetic acid/sodium acetate), 4 g in 20 ml) is 147 mg/mL; in series [3] (aqueous buffer, pH 6.8 Buffer solution (2nd fluid for dissolution test), 4 g in 20 ml), 156 mg/mL; in series [3] (saline or isotonic, Physiological saline, 5 g in 20 ml), 98.8 mg/mL; in series [3] (simulated gastric fluid, pH 1.2 Buffer solution (1st fluid for dissolution test), 4 g in 20 ml), 97.8 mg/mL; in series [3] (Water, 5 g in 20 ml), 143 mg/mL; in series [1] (setting [4]) it was 210 mg/mL. The solubility thermodynamic at 1 h in series [1] (setting [5]) was 125 mg/mL; in series [1] (setting [6]), 128 mg/mL; in series [1] (Water, shaken one hour) it was 189 mg/mL. In series [1] (results of Table 1), the “Solubility compared with the monohydrochloride salt” value is listed as “significantly higher solubility”. Moreover, in series [2], the AUC(0-inf) turned out to be 1.39 µg·h/mL. Besides, the “Variation of the AUC (CV) compared with the monohydrochloride salt” value in series [2] (dogs, oral administration using enteric capsules) is on record as “smaller”. Besides, in series [2], the “AUCinf CV (coefficient of variation)” value was 29.5%.
